Laboratory results from US7732464B2, “Heterocyclic substituted 4-(aminomethyl)-piperidine benzamides as 5HT4-antagonists” (Janssen Pharmaceutica, N.V., priority 2003, dated 2010).
Structures can show the parent of a compound that is named as a salt.

Assays:
[1] = target: T1, h5-HT4b (Homo sapiens, UniProt Q13639); assay: 5HT4 antagonism: [3H]GR113808 binding to membranes of h5-HT4b-HEK 293 clone 9 cells; conditions: displacement of [3H]GR113808 0.1 nM; h5-HT4b-HEK 293 membranes; 30 min at 25° C.; read-out: pIC50 (5HT4 antagonistic data) (converted)
T1 construct: expressed in transfected cells; host or cells: HEK 293 (clone 9), membrane preparation
T1 sequence (Q13639 whole entry): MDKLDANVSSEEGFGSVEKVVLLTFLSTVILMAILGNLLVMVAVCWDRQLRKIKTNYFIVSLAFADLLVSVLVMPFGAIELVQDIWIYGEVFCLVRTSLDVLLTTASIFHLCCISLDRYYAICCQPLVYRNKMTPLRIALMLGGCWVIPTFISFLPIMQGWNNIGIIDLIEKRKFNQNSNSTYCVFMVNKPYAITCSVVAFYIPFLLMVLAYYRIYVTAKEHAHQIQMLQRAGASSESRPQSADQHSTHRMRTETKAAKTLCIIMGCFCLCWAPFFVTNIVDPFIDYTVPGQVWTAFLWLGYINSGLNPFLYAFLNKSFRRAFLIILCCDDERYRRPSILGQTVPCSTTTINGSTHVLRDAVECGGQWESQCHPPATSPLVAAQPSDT
Method: h5-HT4b-HEK 293 clone 9 cells were cultured in 150 mm Petri dishes and washed twice with cold PBS. The cells were then scraped from the plates and suspended in 50 mM Tris-HCl buffer, pH 7.4 and harvested by centrifugation at 23,500 rpm for 10 minutes. The pellet was resuspended in 5 mM Tris-HCl, pH 7.4 and homogenized with an Ultra Turrax homogenizer. The membranes were collected by centrifugation at 30,000 rpm for 20 min, resuspended in 50 mM Tris-HCl pH 7.4 and stored at −80° C. For the experiment, assay mixtures (0.5 ml) contained 50 μl of the tritiated ligand (5-HT4 antagonist [^3H]GR113808 0.1 nM) and 0.4 ml membrane preparation (15 μg protein/ml). 50 μl of 10% DMSO was added for total binding. 50 μl of 1 μM of (+)-trans-(1-butyl-3-hydroxy-4-piperidinyl)methyl 8-amino-7-chloro-2,3-dihydro-1,4-benzodioxin-5-carboxylate (a proprietary 5HT4 agonist of Janssen Pharmaceutica) was added for determination of non-specific binding.
The [^3H]GR113808 assay buffer was 50 mM HEPES-NaOH, pH 7.4. The mixtures were incubated for 30 min at 25° C. The incubation was terminated by filtration over a Unifilter 96 GF/B presoaked in 0.1% polyethylenimine, followed by six washing steps with 50 mM HEPES-NaOH, pH 7.4.

[2] = Metabolic stability: incubation with liver microsomes and NADPH-generating system, LC-MS analysis; type: in vitro ADME; conditions: compound 5 μM; microsomes 1 mg/ml; NADPH-generating system; 60 minutes at 37 degrees Celsius
Method: Sub-cellular tissue preparations were made according to Gorrod et al. (Xenobiotica 5: 453-462, 1975) by centrifugal separation after mechanical homogenization of tissue. Liver tissue was rinsed in ice-cold 0.1 M Tris-HCl (pH 7.4) buffer to wash excess blood. Tissue was then blotted dry, weighed and chopped coarsely using surgical scissors. The tissue pieces were homogenized in 3 volumes of ice-cold 0.1 M phosphate buffer (pH 7.4).
Tissue homogenates were centrifuged at 9000×g for 20 minutes at 4° C. The resulting supernatant was stored at −80° C. and is designated ‘S9’.
The S9 fraction can be further centrifuged at 100.000×g for 60 minutes (4° C.). The resulting supernatant was carefully aspirated, aliquoted and designated ‘cytosol’. The pellet was re-suspended in 0.1 M phosphate buffer (pH 7.4) in a final volume of 1 ml per 0.5 g original tissue weight and designated ‘microsomes’.
All sub-cellular fractions were aliquoted, immediately frozen in liquid nitrogen and stored at −80° C. until use.
For the samples to be tested, the incubation mixture contained PBS (0.1M), compound (5 μM), microsomes (1 mg/ml) and a NADPH-generating system (0.8 mM glucose-6-phosphate, 0.8 mM magnesium chloride and 0.8 Units of glucose-6-phosphate dehydrogenase). Control samples contained the same material but the microsomes were replaced by heat inactivated (10 minutes at 95 degrees Celsius) microsomes. Recovery of the compounds in the control samples was always 100%.
The mixtures were preincubated for 5 minutes at 37 degrees Celsius. The reaction was started at time point zero (t=0) by addition of 0.8 mM NADP and the samples were incubated for 60 minutes (t=60). The reaction was terminated by the addition of 2 volumes of DMSO. Then the samples were centrifuged for 10 minutes at 900×g and the supernatants were stored at room temperature for no longer as 24 hours before analysis. All incubations were performed in duplo. Analysis of the supernatants was performed with LC-MS analysis. Elution of the samples was performed on a Xterra MS C18 (50×4.6 mm, 5 μm, Waters, US). An Alliance 2790 (Supplier: Waters, US) HPLC system was used. Elution was with buffer A (25 mM ammoniumacetate (pH 5.2) in H2O/acetonitrile (95/5)), solvent B being acetonitrile and solvent C methanol at a flow rate of 2.4 ml/min. The gradient employed was increasing the organic phase concentration from 0% over 50% B and 50% C in 5 min up to 100% B in 1 minute in a linear fashion and organic phase concentration was kept stationary for an additional 1.5 minutes. Total injection volume of the samples was 25 μl.
A Quatro triple quadrupole mass spectrometer fitted with and ESP source was used as detector. The source and the desolvation temperature were set at 120 and 350° C. respectively and nitrogen was used as nebuliser and drying gas. Data were acquired in positive scan mode (single ion reaction). Cone voltage was set at 10 V and the dwell time was 1 second.
Metabolic stability was expressed as % metabolism of the compound after 60 minutes (equation given as Example) of incubation in the presence of active microsomes E(act))

| melting point | IC50 [1] | % metabolised compound after 60 minutes [2] | Compound |
| --- | --- | --- | --- |
| 212 °C | – | – | O=C(NCC1CCN(CCCc2nnn[nH]2)CC1O)c1cc(Cl)cc2c1OCCCO2 (centres unmarked) (as salt: HCl) [Compound 7] |
| > 93 °C | – | – | Cc1cc2c(c(C(=O)NC[C@@H]3CCN(CCCc4cc(O)no4)C[C@H]3O)c1)OCCCO2 (hydrate or solvate) [Compound 23] |
| 135 °C | – | – | Cc1cc2c(c(C(=O)NCC3CCN(CCCN4CC(=O)NC4=O)CC3O)c1)OCCCO2 (centres unmarked) (hydrate or solvate) [Compound 24] |
| – | 6.46 nM | 30.5% | O=C1CN(CCCN2CC[C@@H](CNC(=O)c3cc(Cl)cc4c3OCCCO4)[C@H](O)C2)C(=O)N1 (relative stereo) [Compound 21] |
| – | 1 nM | – | CO[C@@H]1CN(CCCCn2ccc(O)n2)CC[C@H]1CNC(=O)c1cc(Cl)c(Br)c2c1OCCCO2 (relative stereo) [Compound 30] |
| – | 2.4 nM | 5% | COc1ccc(C(=O)NC[C@@H]2CCN(CCCCn3ccc(O)n3)C[C@H]2O)c2c1OCCO2 [Compound 1] |
| – | 8.71 nM | 0% | Cc1cc2c(c(C(=O)NC[C@@H]3CCN(CCCc4cc(O)no4)C[C@H]3O)c1)OCCO2 [Compound 2] |
| – | 148 nM | – | N#Cc1cc2c(c(C(=O)NC[C@@H]3CCN(CCCc4cc(O)no4)C[C@H]3O)c1)OCCO2 [Compound 3] |
| – | 11.5 nM | 11% | COc1ccc(C(=O)NCC2CCN(CCCCn3ccc(O)n3)CC2OC)c2c1OCCO2 (centres unmarked) [Compound 4] |
| – | 123 nM | 4% | COc1ccc(C(=O)NC[C@@H]2CCN(CCCc3cc(O)no3)C[C@H]2O)c2c1OCCO2 [Compound 5] |
| – | 2750 nM | 8% | O=C(NC[C@@H]1CCN(CCCc2cc(O)no2)C[C@H]1O)c1cc(F)cc2c1OCCO2 [Compound 6] |
| – | 31.6 nM | 5% | O=C(NCC1CCN(CCCc2nnn[nH]2)CC1O)c1cc(Cl)cc2c1OCCCO2 (centres unmarked) [Compound 7] |
| – | 7.24 nM | 2.5% | O=C(NC[C@@H]1CCN(CCCCc2nnn[nH]2)C[C@H]1O)c1cc(Cl)cc2c1OCCCO2 [Compound 8] |
| – | 7.94 nM | 3% | Cc1ccc(C(=O)NC[C@@H]2CCN(CCCc3nnn[nH]3)C[C@H]2O)c2c1OCCCO2 [Compound 9] |
| – | 5.62 nM | 2% | Cc1ccc(C(=O)NC[C@@H]2CCN(CCCCc3nnn[nH]3)C[C@H]2O)c2c1OCCCO2 [Compound 10] |
| – | 1.26 nM | 39% | O=C(NCC1CCN(CCCCn2ccc(O)n2)CC1O)c1cc(Cl)cc2c1OCCCO2 (centres unmarked) [Compound 11] |
| – | 13.2 nM | 2% | Cc1cc2c(c(C(=O)NC[C@@H]3CCN(CCCCc4nnn[nH]4)C[C@H]3O)c1)OCCCO2 [Compound 13] |
| – | 1.91 nM | 26% | Cc1cc2c(c(C(=O)NC[C@@H]3CCN(CCCCn4ccc(O)n4)C[C@H]3O)c1)OCCCO2 [Compound 15] |
| – | 18.2 nM | 0.5% | O=C(NC[C@@H]1CCN(CCCn2nn[nH]c2=O)C[C@H]1O)c1cc(Cl)cc2c1OCCCO2 [Compound 16] |
| > 125 °C | 46.8 nM | 1% | Cc1cc2c(c(C(=O)NC[C@@H]3CCN(CCc4nnn[nH]4)C[C@H]3O)c1)OCCCO2 [Compound 19] |

| melting point | IC50 [1] | % metabolised compound after 60 minutes [2] | Compound |
| --- | --- | --- | --- |
| – | 64.6 nM | 0% | O=C(NC[C@@H]1CCN(CCc2nnn[nH]2)C[C@H]1O)c1cc(Cl)cc2c1OCCCO2 [Compound 20] |
| – | 9.55 nM | 4.5% | Cc1ccc(C(=O)NC[C@@H]2CCN(CCc3nnn[nH]3)C[C@H]2O)c2c1OCCCO2 [Compound 22] |
| – | 16.6 nM | 6% | Cc1cc2c(c(C(=O)NC[C@@H]3CCN(CCCc4cc(O)no4)C[C@H]3O)c1)OCCCO2 [Compound 23] |
| – | 7.08 nM | 16% | Cc1cc2c(c(C(=O)NCC3CCN(CCCN4CC(=O)NC4=O)CC3O)c1)OCCCO2 (centres unmarked) [Compound 24] |
| – | 33.9 nM | 55% | COC1CN(CCCCn2ccc(O)n2)CCC1CNC(=O)c1cc(C#N)cc2c1OCCCO2 (centres unmarked) [Compound 25] |
| – | 16.6 nM | 3% | Cc1ccc(C(=O)NC[C@@H]2CCN(CCCc3cc(O)no3)C[C@H]2O)c2c1OCCCO2 [Compound 26] |
| – | 10.2 nM | 12% | O=C(NC[C@@H]1CCN(CCCc2cc(O)no2)C[C@H]1O)c1cc(Cl)cc2c1OCCCO2 [Compound 27] |
| – | 1.17 nM | 53% | O=C(NCC1CCN(CCCCn2ccc(O)n2)CC1O)c1cc(Cl)c(Br)c2c1OCCCO2 (centres unmarked) [Compound 28] |
| – | 0.871 nM | 50% | O=C(NCC1CCN(CCCCn2ccc(O)n2)CC1O)c1cc(Cl)c(Cl)c2c1OCCCO2 (centres unmarked) [Compound 29] |
| – | 1.48 nM | 12% | Cc1cc2c(c(C(=O)NC[C@@H]3CCN(CCCN4C(=O)CNC4=O)C[C@H]3O)c1)OCCCO2 [Compound 31] |
| – | 0.759 nM | – | COC1CN(CCCCn2ccc(O)n2)CCC1CNC(=O)c1cc(Cl)c(Cl)c2c1OCCCO2 (centres unmarked) [Compound 32] |
| – | 3.89 nM | 11% | N#Cc1cc2c(c(C(=O)NC[C@@H]3CCN(CCCCn4ccc(O)n4)C[C@H]3O)c1)OCCCO2 [Compound 34] |
| – | 83.2 nM | – | COc1ccc(C(=O)NC[C@@H]2CCN(CCCc3cc(O)no3)C[C@H]2O)c2c1OCCCO2 [Compound 35] |
| – | 14.1 nM | 10% | O=C(NC[C@@H]1CCN(CCCc2cc(O)no2)C[C@H]1O)c1cc(F)cc2c1OCCCO2 [Compound 36] |
| – | 17.8 nM | 1% | O=C(NC[C@@H]1CCN(CCCc2cc(O)no2)C[C@H]1O)c1cccc2c1OCCCO2 [Compound 37] |
| – | 1.05 nM | 18% | Cc1cc2c(c(C(=O)NC[C@@H]3CCN(CCCCN4CCOCC4)C[C@H]3O)c1)OCCCO2 [Compound 38] |
| – | 22.9 nM | 17% | COC1CN(CCCc2cc(O)no2)CCC1CNC(=O)c1cc(Cl)cc2c1OCCCO2 (centres unmarked) [Compound 39] |
| – | 4.07 nM | 0% | COc1ccc(C(=O)NC[C@@H]2CCN(CCCCN3CCOCC3)C[C@H]2O)c2c1OCCCO2 [Compound 42] |
| – | 372 nM | 3% | COc1ccc(C(=O)NCC2CCN(CCCc3cc(O)no3)CC2OC)c2c1OCCCO2 (centres unmarked) [Compound 44] |
| – | 132 nM | 6% | COC1CN(CCCc2cc(O)no2)CCC1CNC(=O)c1cc(C)cc2c1OCCCO2 (centres unmarked) [Compound 45] |
